The source made the active and inactive calls.
Assays:
Cytochrome P450 2D6 = Cytochrome P450 2D6 (Homo sapiens, UniProt P10635);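 further: CYP2D6 member of a cytochrome P450 panel assay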
Cytochrome P450 1A2 = biological target: T1, Cytochrome P450 1A2 (Homo sapiens, UniProt P05177);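 further: PubChem cytochrome P450 panel assay, CYP1A2 panel member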
T1 sequence (P05177 whole entry): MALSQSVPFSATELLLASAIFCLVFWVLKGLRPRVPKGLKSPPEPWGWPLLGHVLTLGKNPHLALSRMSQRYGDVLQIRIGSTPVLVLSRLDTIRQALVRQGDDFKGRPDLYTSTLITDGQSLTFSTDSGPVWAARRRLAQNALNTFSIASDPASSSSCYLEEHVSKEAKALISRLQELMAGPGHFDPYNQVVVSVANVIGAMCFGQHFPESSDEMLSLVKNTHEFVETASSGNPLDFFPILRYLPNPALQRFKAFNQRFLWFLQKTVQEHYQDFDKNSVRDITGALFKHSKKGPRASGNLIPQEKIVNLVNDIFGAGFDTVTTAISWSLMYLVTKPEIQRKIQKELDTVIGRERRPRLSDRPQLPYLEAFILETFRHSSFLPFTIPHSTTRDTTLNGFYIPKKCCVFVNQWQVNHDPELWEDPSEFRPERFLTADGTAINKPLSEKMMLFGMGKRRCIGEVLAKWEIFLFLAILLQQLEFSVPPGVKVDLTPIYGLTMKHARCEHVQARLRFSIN

[1] = biological target: T2, Rac GTPase-activating protein 1 (Homo sapiens, UniProt Q9H0H5); assay: blockers of MgcRacGAP-driven Rac1 GTP hydrolysis – biochemical, ADP Hunter fluorescence, primary and confirmatory, confirmation (AID 624330); type: functional
T2 sequence (Q9H0H5 whole entry): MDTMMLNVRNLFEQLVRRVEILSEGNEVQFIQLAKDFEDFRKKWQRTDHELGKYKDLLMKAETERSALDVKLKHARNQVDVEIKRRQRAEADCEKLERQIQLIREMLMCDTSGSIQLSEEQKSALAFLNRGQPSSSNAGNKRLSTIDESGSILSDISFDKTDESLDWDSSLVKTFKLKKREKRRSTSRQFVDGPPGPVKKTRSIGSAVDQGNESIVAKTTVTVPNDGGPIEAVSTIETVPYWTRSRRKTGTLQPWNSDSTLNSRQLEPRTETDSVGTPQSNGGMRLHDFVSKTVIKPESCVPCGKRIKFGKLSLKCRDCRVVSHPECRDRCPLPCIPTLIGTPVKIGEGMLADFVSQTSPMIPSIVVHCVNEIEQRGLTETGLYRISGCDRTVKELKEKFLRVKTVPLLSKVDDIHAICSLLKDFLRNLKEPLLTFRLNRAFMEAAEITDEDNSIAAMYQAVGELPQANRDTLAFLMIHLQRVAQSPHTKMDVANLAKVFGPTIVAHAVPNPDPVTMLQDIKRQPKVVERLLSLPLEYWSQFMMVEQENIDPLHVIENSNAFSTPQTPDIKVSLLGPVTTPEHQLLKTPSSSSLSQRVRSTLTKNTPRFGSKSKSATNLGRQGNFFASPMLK

cells = type: functional
[2] = P. falciparum Dd2 growth inhibitors, dose response, SYBR Green, cherry-picked samples (AID 1159567); type: functional, cell-based
[3] = viability of PTEN-deleted HCT116 cells – cell-based, HCT116 PTEN knockout, dose response (AID 1047); type: functional;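 further: HCT116 colon tumor cells with PTEN knocked out; cells exposed to compound for 60 hours before readout; potency for loss of cell viability measured by luminescence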
[4] = viability of HCT116 lacking mutant beta-catenin – cell-based, human colon tumor, dose response (AID 1045); type: functional;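 further: HCT116 colon tumor cells with beta catenin knocked out; cells exposed to compound for 60 hours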
Cytochrome P450 2C19 = Cytochrome P450 2C19 (Homo sapiens, UniProt P33261); assay: Cytochrome panel assay with activity outcomes. Panel member name: p450-cyp2c19 Compounds with AC50 equal or less than 10 uM are considered active; type: functional; conditions: read-out: AC50
Cytochrome P450 2C9 = Cytochrome P450 2C9 (Homo sapiens, UniProt P11712)
[5] = Trypanosoma cruzi growth suppression in host cells – NIH3T3 host cells, beta-gal luminescence, confirmation (AID 2044); type: functional, cell-based;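 further: intracellular parasites grown in NIH/3T3 mouse fibroblasts as host cells; luminescent beta-galactosidase reporter signal from transgenic T. cruzi replicating inside host cells; inhibitors lower the luminescence signal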
[6] = NIH3T3 cell viability loss – ATP luminescence, mouse fibroblasts, counter-screen, dose response (AID 2010); type: functional, cell-based;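 further: cells exposed to compound for about 90 hours before reading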
[7] = tested on: Streptococcus sp. 'group A'; assay: Streptococcus pyogenes SK(-)GAS viability under kanamycin – luminescence, BacTiterGlo, confirmation, counter-screen for streptokinase expression inhibitor project, dose response (AID 1900); type: functional, organism-based
Streptokinase A = biological target: T3, Streptokinase A (Streptococcus pyogenes serotype M1, UniProt P10520); assay: viability-normalized secreted streptokinase activity reduction – plasminogen activation absorbance, OD405, dose response (AID 1914); type: functional, Streptococcus pyogenes M1 GAS;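 further: secreted streptokinase activity via plasminogen activation per viability signal from cell pellet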
T3 sequence (P10520 whole entry): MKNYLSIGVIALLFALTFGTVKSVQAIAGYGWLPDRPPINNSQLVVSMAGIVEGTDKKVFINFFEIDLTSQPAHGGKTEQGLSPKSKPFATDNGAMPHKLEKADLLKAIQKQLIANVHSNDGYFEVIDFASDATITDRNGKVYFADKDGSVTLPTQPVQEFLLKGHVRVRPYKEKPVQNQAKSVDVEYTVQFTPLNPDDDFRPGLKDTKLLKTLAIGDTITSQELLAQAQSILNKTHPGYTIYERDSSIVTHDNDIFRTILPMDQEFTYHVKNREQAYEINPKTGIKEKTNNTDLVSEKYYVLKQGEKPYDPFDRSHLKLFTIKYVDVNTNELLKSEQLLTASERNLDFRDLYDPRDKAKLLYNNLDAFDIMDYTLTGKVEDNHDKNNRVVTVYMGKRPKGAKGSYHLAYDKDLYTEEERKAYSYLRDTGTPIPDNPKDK

Streptococcus = assay: GAS UMAA2166 growth inhibition – luminescence, BacTiterGlo, counter-screen for streptokinase expression inhibitor project, dose response (AID 1915); type: functional, organism-based;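 further: potency for reduction of bacterial viability or growth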
Cytochrome P450 3A4 = Cytochrome P450 3A4 (Homo sapiens, UniProt P08684);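 further: CYP3A4 tested as one member of a cytochrome P450 panel screen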
Cytochrome P450 3A4, sequence (P08684 whole entry): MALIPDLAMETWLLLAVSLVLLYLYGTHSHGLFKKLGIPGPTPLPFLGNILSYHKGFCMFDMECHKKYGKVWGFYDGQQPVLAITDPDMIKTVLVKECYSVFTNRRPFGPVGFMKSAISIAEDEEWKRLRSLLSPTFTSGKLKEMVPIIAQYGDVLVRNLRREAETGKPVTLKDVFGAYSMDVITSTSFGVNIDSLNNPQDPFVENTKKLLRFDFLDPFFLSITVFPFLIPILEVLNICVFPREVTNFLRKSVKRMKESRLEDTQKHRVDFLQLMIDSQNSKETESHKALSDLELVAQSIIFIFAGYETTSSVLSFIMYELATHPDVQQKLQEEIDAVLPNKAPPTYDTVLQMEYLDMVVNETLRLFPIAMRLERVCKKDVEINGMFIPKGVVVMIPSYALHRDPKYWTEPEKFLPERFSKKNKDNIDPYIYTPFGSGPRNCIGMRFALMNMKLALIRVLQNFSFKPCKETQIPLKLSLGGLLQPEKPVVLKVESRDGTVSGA

Cytochrome P450 2C19, sequence (P33261 whole entry): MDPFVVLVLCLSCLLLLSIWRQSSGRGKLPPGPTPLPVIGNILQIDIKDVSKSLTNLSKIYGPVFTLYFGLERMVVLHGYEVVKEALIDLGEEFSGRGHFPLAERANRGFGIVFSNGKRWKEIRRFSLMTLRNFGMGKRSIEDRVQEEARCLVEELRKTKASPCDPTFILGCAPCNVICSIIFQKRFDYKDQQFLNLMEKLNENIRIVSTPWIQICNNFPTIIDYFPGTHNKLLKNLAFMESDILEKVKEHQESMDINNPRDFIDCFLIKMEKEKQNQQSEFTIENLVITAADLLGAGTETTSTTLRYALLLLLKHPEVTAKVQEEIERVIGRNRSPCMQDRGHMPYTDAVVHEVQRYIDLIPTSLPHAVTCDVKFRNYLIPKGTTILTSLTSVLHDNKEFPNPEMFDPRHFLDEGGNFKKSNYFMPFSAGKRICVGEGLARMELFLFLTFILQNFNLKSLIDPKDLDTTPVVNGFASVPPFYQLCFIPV
Cytochrome P450 2D6, sequence (P10635 whole entry): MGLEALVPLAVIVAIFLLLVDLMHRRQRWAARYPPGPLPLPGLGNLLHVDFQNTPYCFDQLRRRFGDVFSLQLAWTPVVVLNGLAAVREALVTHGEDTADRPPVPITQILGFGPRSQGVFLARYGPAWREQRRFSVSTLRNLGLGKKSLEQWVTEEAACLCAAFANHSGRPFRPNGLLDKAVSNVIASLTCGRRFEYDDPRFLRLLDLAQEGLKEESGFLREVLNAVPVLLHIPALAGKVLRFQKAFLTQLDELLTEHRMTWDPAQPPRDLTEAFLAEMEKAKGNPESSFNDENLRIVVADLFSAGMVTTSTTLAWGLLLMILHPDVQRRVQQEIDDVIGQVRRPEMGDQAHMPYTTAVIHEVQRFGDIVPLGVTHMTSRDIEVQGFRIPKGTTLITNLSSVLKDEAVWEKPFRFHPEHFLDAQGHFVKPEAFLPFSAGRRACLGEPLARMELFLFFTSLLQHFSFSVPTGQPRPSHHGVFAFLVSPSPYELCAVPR
Cytochrome P450 2C9, sequence (P11712 whole entry): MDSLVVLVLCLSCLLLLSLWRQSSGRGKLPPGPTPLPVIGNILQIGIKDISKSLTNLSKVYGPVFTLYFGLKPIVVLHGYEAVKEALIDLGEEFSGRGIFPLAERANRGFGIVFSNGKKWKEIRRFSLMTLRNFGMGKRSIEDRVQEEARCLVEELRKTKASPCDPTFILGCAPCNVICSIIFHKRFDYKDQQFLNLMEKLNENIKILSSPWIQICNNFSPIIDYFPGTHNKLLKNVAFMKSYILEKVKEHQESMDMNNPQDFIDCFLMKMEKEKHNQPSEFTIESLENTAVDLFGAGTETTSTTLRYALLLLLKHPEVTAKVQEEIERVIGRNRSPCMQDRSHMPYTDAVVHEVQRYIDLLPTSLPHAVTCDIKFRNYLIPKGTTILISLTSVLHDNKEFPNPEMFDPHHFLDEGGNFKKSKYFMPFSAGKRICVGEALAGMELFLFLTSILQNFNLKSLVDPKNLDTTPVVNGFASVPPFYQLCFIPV

## CC(C)(C)NC[C@H](O)c1ccccc1Cl
Cytochrome P450 2D6
  AC50: 31.6 µM (inconclusive)

## CCSc1nnc([C@@H](N)Cc2c[nH]c3ccccc23)o1
Cytochrome P450 2D6
  AC50: 12.6 µM (inconclusive)
Cytochrome P450 1A2
  AC50: 17.8 µM (inconclusive)

## CCOc1ccccc1Oc1c[nH]nc1-c1ccc(O)cc1O
[1]
  IC50: 35.5 µM (active)

## COc1cc(/C=N/NC(=O)c2ccccn2)ccc1OC(=O)c1cccs1
cells
  IC50: 10.5 µM (active)

## CC(C)(C)[S@@+]([O-])N1Cc2cc(C(=O)NCCN3CCCC3)nc(-c3cccc(-c4ccc(C#N)cc4)c3)c2[C@H]1CCO
[2]
  AC50: 4.66 µM (active)

## COc1ccc2oc(C(=O)c3ccccc3)c(NC(=O)CN3CCN(C)CC3)c2c1
[3]
  EC50: 15.9 µM (active)
[4]
  EC50: 14.1 µM (active)

## COc1ccc(CCNCc2cccc(C(F)(F)F)c2)cc1OC
[1]
  IC50: 186 µM (active)

## O=C(Cn1cc(C(F)(F)F)ccc1=O)N1CCN(S(=O)(=O)c2ccccc2)CC1
Cytochrome P450 2C19
  AC50: 31.6 µM (inconclusive)
Cytochrome P450 2D6
  AC50: 11.2 µM (inconclusive)
Cytochrome P450 1A2
  AC50: 39.8 µM (inconclusive)

## COc1ccccc1NC(=O)N1CCCCN2[C@@H](CO)[C@H](c3ccc(C#CC4CC4)cc3)[C@@H]2C1
[2]
  AC50: 5.48 µM (active)

## ClCCNc1nc2cc(Cl)ccc2[nH]1
Cytochrome P450 2C19
  AC50: 15.8 µM (inconclusive)
Cytochrome P450 2D6
  AC50: 6.31 µM (inconclusive)
Cytochrome P450 2C9
  AC50: 4.47 µM (inconclusive)

## Cc1ccc(SCCN2CCN(Cc3ccccc3)CC2)cc1
[5]
  EC50: 549 nM (active)
[6]
  EC50: > 60 µM (not active)
[1]
  IC50: 84.8 µM (active)

## O=C1/C(=C\c2cccnc2)CCc2ccccc21
[3]
  EC50: 15.4 µM (active)
[4]
  EC50: 14.5 µM (active)

## C[C@@H]1CN([C@H](C)CO)C(=O)c2cc(C#Cc3ccccc3F)cnc2O[C@H]1CN(C)C(=O)c1ccc2c(c1)OCO2
[2]
  AC50: 3.31 µM (active)

## COc1cc(Nc2c([N+](=O)[O-])nn(-c3ccc4c(c3)OCCO4)[n+]2[O-])cc(OC)c1
[7]
  EC50: 2.35 µM (active)
Streptokinase A
  EC50: > 150 µM (not active)
[3]
  EC50: 2.29 µM (active)
[4]
  EC50: 1.78 µM (active)
Streptococcus
  EC50: 19 µM (active)

## COc1ccc(N2CCN(S(=O)(=O)c3c(C)nc4scc(C)n4c3=O)CC2)cc1
[1]
  IC50: 209 µM (active)

## O=C(Nc1ccc(Cl)c(Cl)c1)N1CCC(N2CCCCC2)CC1
Cytochrome P450 2C19
  AC50: 39.8 µM (inconclusive)
Cytochrome P450 2D6
  AC50: 10 µM (inconclusive)
Cytochrome P450 3A4
  AC50: 22.4 µM (inconclusive)

## O=C(OCn1nnc2ccccc2c1=O)C1CCCCC1
cells
  IC50: 6.75 µM (active)

## COc1ccc(N2C(=O)/C(=C/N(C)C)NC2=S)cc1
[1]
  IC50: 75.4 µM (active)

Reference: ChEMBL document CHEMBL1201862, “PubChem BioAssay data set” (2004)
